{"source": "patent US8507545B2", "about": "“Cytotoxic T cell activator comprising EP4 agonist” (National University Corporation, Hamamatsu University …, priority 2007, dated 2013)", "key": {"[1]": {"tested_on": "TRP-2-specific CTLs", "assay": "Activation of cytotoxic T cells in cervical lymph nodes after tape stripping (TRP-2 tetramer flow cytometry)", "assay_type": "in vivo, C57BL/6(B6) mice", "details": "for Ratio of TRP-2-specific CTLs: Example 1(1), cervical lymph nodes one week after application, relative to total mononucleocytes as 100", "procedure": "(§1) The corneal layers of the auricles of C57BL/6(B6) mice were destroyed by repeating a stripping procedure using an adhesive tape in 10 cycles, and an antigen peptide or EP4 agonist was applied as a test substance. The antigen peptide used was a melanoma-specific antigen peptide (Accord K.K. Peptide Business Department; hereinafter abbreviated TRP-2) in solution in 70% ethanol; 10 μg was applied to one side of each auricle. The EP4 agonist used was 11α,15α,-dihydroxy-9-oxo-16-(3-methoxymethylphenyl)-17,18,19,20-tetranol-3,7-dithiaprost-13E-enoic acid (hereinafter abbreviated Compound A-(1)) in solution in a mixed solvent of acetone:olive oil=10:1; 20 μL of 100 μM solution was applied to one side of each auricle. One week after application of the test substance, the cervical lymph nodes were removed. The frequency of TRP-2-specific CTLs was determined relative to the total number of mononucleocytes in the cervical lymph nodes as 100 by a flowcytometric analysis (FACScaliber; Becton, Dickinson and Company.) with a tetramer (Medical & Biological Laboratories Co., Ltd.). Four experimental groups were established: (1) a group undergoing tape stripping (hereinafter abbreviated TS) alone, (2) a group undergoing TS followed by application of TRP-2, (3) a group undergoing TS followed by application of Compound A-(1), and (4) a group undergoing TS followed by application of TRP-2 and Compound A-(1).\nNote that the melanoma-specific antigen peptide TRP-2 was synthesized on the basis of a partial sequence described in the aforementioned Non-patent Document 1 (SEQ ID NO. 1) (Accord K.K. Peptide Business Department).\nThe same procedures as Example 1(1) were followed except that the EP4 agonists used were 4-[(2-{(2R)-2-[(1E,3S)-4-(4-fluorophenyl)-3-hydroxybut-1-enyl]-5-oxopyrrolidin-1-yl}ethyl)sulfanyl]butanoic acid (hereinafter abbreviated Compound L-(1)) and 4-{[2-((1R,2R,3R)-3-hydroxy-2-{(1E,3S)-3-hydroxy-4-[3-(methoxymethyl)phenyl]but-1-enyl}-5-oxocyclopentyl)ethyl]sulfanyl}butanoic acid (hereinafter abbreviated Compound M-(1)); the action of each compound to activate cytotoxic T cells was evaluated. Four experimental groups were established: (1) a group undergoing TS alone, (2) a group undergoing TS followed by application of TRP-2, (3) a group undergoing TS followed by application of TRP-2 and Compound L-(1), and (4) a group undergoing TS followed by application of TRP-2 and Compound M-(1)."}, "[2]": {"tested_on": "HSVgpB-specific CTLs", "assay": "Activation of cytotoxic T cells in cervical lymph nodes after tape stripping (HSVgpB pentamer flow cytometry)", "assay_type": "in vivo, C57BL/6(B6) mice", "details": "Example 1(3), TS followed by application of HSVgpB and the EP4 agonist", "procedure": "as §1\nThe same procedures as Example 1(1) were followed except that the antigen peptide used was the herpes simplex virus-specific antigen HSV glycoprotein B (hereinafter abbreviated HSVgpB), and that a flowcytometric analysis with a pentamer (ProImmune Company) was performed, and the action of each compound to activate cytotoxic T cells was evaluated. Five experimental groups were established: (1) a group undergoing TS alone, (2) a group undergoing TS followed by application of HSVgpB, (3) a group undergoing TS followed by application of HSVgpB and Compound A-(1), (4) a group undergoing TS followed by application of HSVgpB and Compound L-(1), and (5) a group undergoing TS followed by application of HSVgpB and Compound M-(1).\nNote that the herpes simplex virus-specific antigen peptide HSVgpB was synthesized on the basis of the partial sequence shown by SEQ ID NO. 2 (Virology, Vol. 195, pp. 62-70, (1993)) (ProImmune Company)."}}}
{"smiles": "COCc1cccc(C[C@H](O)/C=C/[C@H]2[C@H](O)CC(=O)[C@@H]2SCCCSCC(=O)O)c1", "note": "[Compound A-(1), 11α,15α,-dihydroxy-9-oxo-16-(3-methoxymethylphenyl)-17,18,19,20-tetranol-3,7-dithiaprost-13E-enoic acid]", "values": [{"measurement": "Ratio of TRP-2-specific CTLs", "setting": "[1]; TS followed by application of TRP-2 and Compound A-(1)", "value": 0.63}, {"measurement": "Ratio of TRP-2-specific CTLs", "setting": "[1]; TS followed by application of the test substance alone", "value": 0.55}, {"measurement": "ratio of TRP-2-specific CTLs in cervical lymph nodes compared with the group undergoing TS alone", "setting": "[1]; TS followed by application of Compound A-(1)", "value": "increased"}, {"measurement": "Ratio of HSVgpB-specific CTLs", "setting": "[2]", "value": 0.41}]}
